Here are results for 16 compounds from patent US20220257774A1, “AROMATIC AMINE AR AHD BET TARGETING PROTEIN DEGRADATION CHIMERA COMPOUND AND USE” (HINOVA PHARMACEUTICALS INC., priority 2019, published 2022).

For this assay, the system named is LNCaP/AR cells. In words: Inhibition of the proliferation of LNCap/AR cells (CCK-8). It counts as cell-based. As to conditions: read-out: LNCap/AR IC50. The text has this: 1. Biological Assay of the Inhibition on the Proliferation of LNCap/AR Cells
(1) Experimental materials and instruments: LNCaP/AR cell line and 22RV1 cell line (provided by Sichuan Kangcheng Biotechnology Co., Ltd.) Fetal bovine serum FBS (Gibco, Cat. No. 10099-141) 0.01M PBS (Biosharp, Cat. No. 162262) RIPM1640 medium (Hyclone, Cat. No. 308090.01) Penicillin-Streptomycin (Hyclone, Cat. No. SV30010) Cell counting kit-8 (Signalway Antibody, Cat. No. CP002) DMSO (Sigma, Cat. No. D5879) Centrifuge Tube, 15 ml (Excell Bio, Cat. No. CS015-0001) Cell Culture Dish, (Excell Bio, Cat. No. CS016-0128) 96-well cell culture plate (Corning, Cat. No. 3599) Microplate reader (Thermo Multiskan MK3 type)
(2) Experimental Methods:
a. Preparation of Buffer Cell culture medium: RIPM1640 medium, 10% FBS, 1% Pen Strep: PBS buffer: PBS powder was dissolved in 2 L of ultrapure water and sterilized. b. Experimental Procedures 1) LNCaP/AR cells were subcultured in cell culture media, and then the cells in good growth condition were seeded in a 96-well plate at 80 μL/well (1000 cells/well), and cultured overnight in a 37° C., 5% CO2 cell incubator. 2) The drug was prepared into a 10 mM stock solution with dimethyl sulfoxide (DMSO). Prior to use, the stock solution was diluted in a ratio of […] with DMSO, and then diluted at a 3-fold gradient to obtain 9 serial concentrations. Then, each concentration of compound was further diluted in a ratio of 1:200 with the culture medium (to ensure that the DMSO concentration in the culture system was 0.1%), and two wells were set for each concentration. 20 μL of the diluted compound solution was added to the well of the cell culture (with a final concentration of 10 μM, 3.3 μM, 1.1 μM . . . ), and then the plate was gently tapped to thoroughly mix. In addition, the experiment included 3 negative control wells only containing cells and 3 blank control wells only containing culture medium (6 wells were each added with DMSO diluted in a ratio of 1:200 with 20 μL of culture medium). c. Result Detection: 1) After culturing for 6 days, 10 μL of CCK-8 was added to each well, and the plate was further incubated for 1 h in a 37° C., 5% CO2 cell incubator. 2) The absorbance (OD value) was measured at 450 nm with a multifunctional microplate reader. 3) The data was analyzed by the Dose-response-inhibition equation in the software GraphPad Prism5, and the IC50 value was obtained. 2. Biological assay of the inhibition on the proliferation of other drug-resistant prostate cancer cells

The mark [1] stands for this setting: 144 h, LNCaP/AR cells, 6 days culture, CCK-8.

pIC50: −log10 of the molar value. Where two headings read alike, the source gives them in different places.

Consider `CCN(c1ccc(C#N)c(Cl)c1)c1cc(-c2c(C)nn(CCCCCOCC(=O)N[C@H](C(=O)N3C[C@H](O)C[C@H]3C(=O)N[C@@H](C)c3ccc(-c4scnc4C)cc3)C(C)(C)C)c2C)ccc1C` [Compound 1], for which the pIC50 (LNCaP/AR, 144 h) is below 5.70.

`CCN(c1ccc(C#N)c(Cl)c1)c1cc(-c2nn(CCCCCOCC(=O)N[C@H](C(=O)N3C[C@H](O)C[C@H]3C(=O)N[C@@H](C)c3ccc(-c4scnc4C)cc3)C(C)(C)C)cc2C)ccc1C` [Compound 2]: the pIC50 (LNCaP/AR, 144 h) was below 5.70.

`CC(=O)O[C@@H]1C[C@@H](C(=O)N[C@@H](C)c2ccc(-c3scnc3C)cc2)N(C(=O)[C@@H](NC(=O)COCCCCCN(c2ccc(C#N)c(Cl)c2)c2cc(-c3c(C)noc3C)ccc2C)C(C)(C)C)C1` [Compound 3]: the pIC50 (LNCaP/AR, 144 h) is 6.30 to 7.00.

With `CC(=O)O[C@@H]1C[C@@H](C(=O)N[C@@H](C)c2ccc(-c3scnc3C)cc2)N(C(=O)[C@@H](NC(=O)COCCCCCN(c2ccc(C#N)c(C(F)(F)F)c2)c2cc(-c3c(C)noc3C)ccc2C)C(C)(C)C)C1` [Compound 4], the pIC50 (LNCaP/AR, 144 h) is below 5.70.

Consider `CC(=O)O[C@@H]1C[C@@H](C(=O)N[C@@H](C)c2ccc(-c3scnc3C)cc2)N(C(=O)[C@@H](NC(=O)COCCCCCCN(c2ccc(-n3ccnc3)cc2)c2cc(-c3c(C)noc3C)ccc2C)C(C)(C)C)C1` [Compound 5, (3R,5S)-1-((S)-2-(2-((6-((4-(1H-imidazol-1-yl)phenyl)(5-(3,5-Dimethylisoxazol-4-yl)-2-methylphenyl)amino)n-hexyl)oxy)acetylamino)-3,3-dimethylbutyryl)-5-(((S)-1-(4-(4-methylthiazol-5-yl)phenyl)ethyl)formylamino)pyrrolidinyl-3-acetate], for which the pIC50 under setting [1] was below 5.70.

For the compound `Cc1ccc(-c2c(C)noc2C)cc1N(CCCCCCOCC(=O)N[C@H](C(=O)N1C[C@H](O)C[C@H]1C(=O)N[C@@H](C)c1ccc(-c2scnc2C)cc1)C(C)(C)C)c1ccc(-n2ccnc2)cc1` [Compound 6, (2S,4R)-1-((S)-2-(2-((6-((4-(1H-imidazol-1-yl)phenyl)(5-(3,5-Dimethylisoxazol-4-yl)-2-methylphenyl)amino)n-hexyl)oxy)acetylamino)-3,3-dimethylbutyryl)-4-hydroxy-N—((S)-1-(4-(4-methylthiazol-5-yl)phenyl)ethyl)pyrrolidinyl-2-formamide], the pIC50 under setting [1] was 5.70 to 6.30.

As for `CC(=O)O[C@@H]1C[C@@H](C(=O)N[C@@H](C)c2ccc(-c3scnc3C)cc2)N(C(=O)[C@@H](NC(=O)COCCCCCCCN(c2ccc(-n3ccnc3)cc2)c2cc(-c3c(C)noc3C)ccc2C)C(C)(C)C)C1` [Compound 7], the pIC50 under setting [1] is below 5.70.

Take `Cc1ccc(-c2c(C)noc2C)cc1N(CCCCCCCOCC(=O)N[C@H](C(=O)N1C[C@H](O)C[C@H]1C(=O)N[C@@H](C)c1ccc(-c2scnc2C)cc1)C(C)(C)C)c1ccc(-n2ccnc2)cc1` [Compound 8]: the pIC50 under setting [1] is 5.70 to 6.30.

As to `CC(=O)O[C@@H]1C[C@@H](C(=O)N[C@@H](C)c2ccc(-c3scnc3C)cc2)N(C(=O)[C@@H](NC(=O)COCCCCCN(c2ccc(-n3ccnc3)c(Br)c2)c2cc(-c3c(C)noc3C)ccc2C)C(C)(C)C)C1` [Compound 9, (3R,5S)-1-((S)-2-(2-((5-((3-bromo-4-(1H-imidazol-1-yl)phenyl)(5-(3,5-dimethylisoxazol-4-yl)-2-methylphenyl)amino)n-pentyl)oxy)acetylamino)-3,3-dimethylbutyryl)-5-(((S)-1-(4-(4-methylthiazol-5-yl)phenyl)ethyl)formylamino)pyrrolidinyl-3-acetate], under “LNCaP/AR cells, 6 days culture, CCK-8”, the pIC50 is 5.70 to 6.30.

With `CC(=O)O[C@@H]1C[C@@H](C(=O)N[C@@H](C)c2ccc(-c3scnc3C)cc2)N(C(=O)[C@@H](NC(=O)COCCCCCN(c2ccc(-n3ccnc3)c(Cl)c2)c2cc(-c3c(C)noc3C)ccc2C)C(C)(C)C)C1` [Compound 11, (3R,5S)-1-((S)-2-(2-((5-((3-chloro-4-(1H-imidazol-1-yl)phenyl)(5-(3,5-dimethylisoxazol-4-yl)-2-methylphenyl)amino)n-pentyl)oxy)acetylamino)-3,3-dimethylbutyryl)-5-(((S)-1-(4-(4-methylthiazol-5-yl)phenyl)ethyl)formylamino)pyrrolidinyl-3-acetate], under setting [1], the pIC50 is 5.70 to 6.30.

Turning to `Cc1ccc(-c2c(C)noc2C)cc1N(CCCCCOCC(=O)N[C@H](C(=O)N1C[C@H](O)C[C@H]1C(=O)N[C@@H](C)c1ccc(-c2scnc2C)cc1)C(C)(C)C)c1ccc(-n2ccnc2)c(Cl)c1` [Compound 12, (2S,4R)-1-((S)-2-(2-((5-((3-chloro-4-(1H-imidazol-1-yl)phenyl)(5-(3,5-dimethylisoxazol-4-yl)-2-methylphenyl)amino)n-pentyl)oxy)acetylamino)-3,3-dimethylbutyryl)-4-hydroxy-N—((S)-1-(4-(4-methylthiazol-5-yl)phenyl)ethyl) pyrrolidinyl-2-formamide], the pIC50 under setting [1] was 6.30 to 7.00.

As to `CC(=O)O[C@@H]1C[C@@H](C(=O)N[C@@H](C)c2ccc(-c3scnc3C)cc2)N(C(=O)[C@@H](NC(=O)COCCCCCN(c2ccc(-n3ccnc3)c(F)c2)c2cc(-c3c(C)noc3C)ccc2C)C(C)(C)C)C1` [Compound 13, (3R,5S)-1-((S)-2-(2-((5-((3-fluoro-4-(1H-imidazol-1-yl)phenyl)(5-(3,5-dimethylisoxazol-4-yl)-2-methylphenyl)amino)n-pentyl)oxy)acetylamino)-3,3-dimethylbutyryl)-5-(((S)-1-(4-(4-methylthiazol-5-yl)phenyl)ethyl)formylamino)pyrrolidinyl-3-acetate], the pIC50 (LNCaP/AR, 144 h) is below 5.70.

In the case of `Cc1ccc(-c2c(C)noc2C)cc1N(CCCCCOCC(=O)N[C@H](C(=O)N1C[C@H](O)C[C@H]1C(=O)N[C@@H](C)c1ccc(-c2scnc2C)cc1)C(C)(C)C)c1ccc(-n2ccnc2)c(F)c1` [Compound 14, (2S,4R)-1-((S)-2-(2-((5-((3-fluoro-4-(1H-imidazol-1-yl)phenyl)(5-(3,5-dimethylisoxazol-4-yl)-2-methylphenyl)amino)n-pentyl)oxy)acetylamino)-3,3-dimethylbutyryl)-4-hydroxy-N—((S)-1-(4-(4-methylthiazol-5-yl)phenyl)ethyl)pyrrolidinyl-2-formamide], under setting [1], the pIC50 is below 5.70.

`CC(=O)O[C@@H]1C[C@@H](C(=O)N[C@@H](C)c2ccc(-c3scnc3C)cc2)N(C(=O)[C@@H](NC(=O)COCCCCCN(c2ccc(F)c(-n3ccnc3)c2)c2cc(-c3c(C)noc3C)ccc2C)C(C)(C)C)C1` [Compound 15]: the pIC50 (LNCaP/AR, 144 h) is below 5.70.

Regarding `Cc1ccc(-c2c(C)noc2C)cc1N(CCCCCOCC(=O)N[C@H](C(=O)N1C[C@H](O)C[C@H]1C(=O)N[C@@H](C)c1ccc(-c2scnc2C)cc1)C(C)(C)C)c1ccc(F)c(-n2ccnc2)c1` [Compound 16], the pIC50 under setting [1] was below 5.70.

As to `CC(=O)O[C@@H]1C[C@@H](C(=O)N[C@@H](C)c2ccc(-c3scnc3C)cc2)N(C(=O)[C@@H](NC(=O)COCCCCCN(c2ccc(-n3ccnc3)cc2)c2cc3c(C)noc3cc2C)C(C)(C)C)C1` [Compound 17, (3R,5S)-1-((S)-2-(2-((5-((4-(1H-imidazol-1-yl)phenyl)(3,6-dimethylbenzo[d]isoxazol-5-yl)amino)pentyl)oxy)acetamido)-3,3-dimethylbutyryl)-5-((S)-1-(4-(4-methylthiazol-5-yl)phenyl)ethyl)carbamoyl)pyrrolidine-3-yl acetate], the pIC50 under setting [1] was below 5.70.
